# Reference: US20230357269A1 (LES LABORATOIRES SERVIER, priority 2020, published 2023)
# Target: human recombinant LRRK2 protein (Homo sapiens (Human), UniProt Q5S007)
# Test: LRRK2 Kinase Activity Assay (ADP-Glo)
# Format: biochemical
# Conditions: LRRK2 wt; LRRKtide peptide and ATP substrates; 1h-incubation at 37° C.
# How it was run: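 Recombinant human LRRK2 acted on LRRKtide peptide and ATP for 1 h at 37 °C. ADP formed was detected by ADP-Glo luminescence (ATP depletion, then ADP-to-ATP conversion and luciferase). IC50s came from curve fits over 10 concentrations (N=2).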
# Chain of human recombinant LRRK2 protein (Q5S007 whole entry): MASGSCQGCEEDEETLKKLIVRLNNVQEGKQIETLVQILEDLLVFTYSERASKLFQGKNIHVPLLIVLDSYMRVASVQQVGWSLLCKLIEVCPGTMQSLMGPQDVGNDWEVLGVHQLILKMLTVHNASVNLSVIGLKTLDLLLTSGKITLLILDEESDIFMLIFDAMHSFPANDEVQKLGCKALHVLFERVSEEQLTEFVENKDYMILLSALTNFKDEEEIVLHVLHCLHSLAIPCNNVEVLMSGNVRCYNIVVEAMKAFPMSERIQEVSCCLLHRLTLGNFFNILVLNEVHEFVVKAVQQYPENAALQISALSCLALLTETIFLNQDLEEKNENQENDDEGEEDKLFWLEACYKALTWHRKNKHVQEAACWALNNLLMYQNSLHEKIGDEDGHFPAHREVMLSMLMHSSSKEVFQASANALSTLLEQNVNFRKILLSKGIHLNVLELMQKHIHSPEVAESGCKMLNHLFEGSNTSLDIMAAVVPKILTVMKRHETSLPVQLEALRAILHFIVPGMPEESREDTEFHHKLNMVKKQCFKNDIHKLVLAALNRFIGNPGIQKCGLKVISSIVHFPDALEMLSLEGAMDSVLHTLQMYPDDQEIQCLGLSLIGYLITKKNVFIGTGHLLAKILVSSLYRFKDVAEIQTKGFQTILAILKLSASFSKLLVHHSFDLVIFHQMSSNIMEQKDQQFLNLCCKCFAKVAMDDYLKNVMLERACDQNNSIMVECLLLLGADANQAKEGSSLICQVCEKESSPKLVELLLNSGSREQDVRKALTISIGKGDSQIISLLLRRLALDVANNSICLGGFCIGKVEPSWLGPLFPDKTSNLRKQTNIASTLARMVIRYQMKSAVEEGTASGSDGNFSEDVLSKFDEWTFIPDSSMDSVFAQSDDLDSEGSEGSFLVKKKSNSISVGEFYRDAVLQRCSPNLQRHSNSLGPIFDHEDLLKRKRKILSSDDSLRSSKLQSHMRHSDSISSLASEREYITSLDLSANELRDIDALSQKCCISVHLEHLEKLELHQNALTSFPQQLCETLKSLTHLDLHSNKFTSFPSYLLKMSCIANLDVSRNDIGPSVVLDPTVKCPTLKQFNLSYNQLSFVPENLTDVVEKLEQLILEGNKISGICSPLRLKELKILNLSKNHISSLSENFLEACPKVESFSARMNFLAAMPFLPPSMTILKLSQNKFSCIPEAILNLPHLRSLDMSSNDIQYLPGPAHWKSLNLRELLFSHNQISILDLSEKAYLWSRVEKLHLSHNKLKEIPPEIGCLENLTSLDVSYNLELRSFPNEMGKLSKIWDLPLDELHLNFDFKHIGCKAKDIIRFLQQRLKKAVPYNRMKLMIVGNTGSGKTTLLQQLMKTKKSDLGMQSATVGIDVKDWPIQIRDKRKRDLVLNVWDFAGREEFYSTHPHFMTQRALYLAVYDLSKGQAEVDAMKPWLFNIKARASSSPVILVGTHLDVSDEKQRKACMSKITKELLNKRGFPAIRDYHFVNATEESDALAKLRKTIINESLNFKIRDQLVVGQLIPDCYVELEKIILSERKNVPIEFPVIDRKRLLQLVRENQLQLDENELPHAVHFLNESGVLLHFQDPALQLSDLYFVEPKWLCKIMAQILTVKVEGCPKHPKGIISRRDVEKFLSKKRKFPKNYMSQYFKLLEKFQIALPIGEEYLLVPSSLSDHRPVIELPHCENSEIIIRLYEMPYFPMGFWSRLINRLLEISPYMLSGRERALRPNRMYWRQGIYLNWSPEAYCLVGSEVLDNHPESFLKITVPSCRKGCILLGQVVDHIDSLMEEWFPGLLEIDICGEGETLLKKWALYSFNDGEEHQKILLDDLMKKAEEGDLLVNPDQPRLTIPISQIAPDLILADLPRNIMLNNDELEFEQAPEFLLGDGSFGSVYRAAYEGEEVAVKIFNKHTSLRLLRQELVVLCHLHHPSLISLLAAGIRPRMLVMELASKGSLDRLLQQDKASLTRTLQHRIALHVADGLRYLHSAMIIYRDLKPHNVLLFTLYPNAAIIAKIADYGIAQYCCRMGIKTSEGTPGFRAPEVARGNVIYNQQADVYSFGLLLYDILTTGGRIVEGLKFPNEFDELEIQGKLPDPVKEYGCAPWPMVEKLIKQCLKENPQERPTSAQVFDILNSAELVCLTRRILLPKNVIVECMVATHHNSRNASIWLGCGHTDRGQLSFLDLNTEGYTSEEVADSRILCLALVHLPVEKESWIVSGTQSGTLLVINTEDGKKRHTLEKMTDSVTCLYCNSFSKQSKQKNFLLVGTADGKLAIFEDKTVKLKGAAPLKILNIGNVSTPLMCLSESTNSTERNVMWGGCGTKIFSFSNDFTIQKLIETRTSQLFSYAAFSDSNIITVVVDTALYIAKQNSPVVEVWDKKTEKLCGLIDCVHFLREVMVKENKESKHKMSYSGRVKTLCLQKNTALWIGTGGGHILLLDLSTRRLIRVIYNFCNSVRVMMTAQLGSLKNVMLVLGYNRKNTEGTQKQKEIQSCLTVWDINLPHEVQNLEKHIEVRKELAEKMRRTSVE
row,IC50,SMILES
1,< 10 nM,"O=C1NCCCOc2ccc3[nH]nc(c3c2)-c2cnn(c2)C(C2CC2)CO1 (stereo not shown) [Example 103, 6-cyclopropyl-8,14-dioxa-4,5,10,19,20-pentaazatetracyclo[13.5.2.1^2,5.0^18,21]tricosa-1(20),2(23),3,15(22),16,18(21)-hexaen-9-one]"
2,< 10 nM,"C[C@@H]1CCNC(=O)OCc2cccc(c2)-c2n[nH]c3c(F)cc(cc23)O1 [Example 153, (13R)-17-fluoro-13-methyl-8,14-dioxa-10,19,20-triazatetracyclo[13.5.2. 1^2,6.0^18,21]tricosa-1(20),2(23),3,5,15(22),16,18(21)-heptaen-9-one]"
3,< 10 nM,"CC1CCNC(=O)OCc2cc(F)cc(c2)-c2n[nH]c3ccc(cc23)O1 (single isomer, unassigned) [Example 101, (13R) or (13S)-4-fluoro-13-methyl-8,14-dioxa-10,19,20-triazatetracyclo[13.5.2.1^2,6.0^18,21]tricosa-1(20),2(23),3,5,15(22),16,18(21)-heptaen-9-one]"
4,< 10 nM,"O=C1NCCCOc2ccc3[nH]nc(c3c2)-c2cc(cc(N3CCC(F)(F)CC3)c2)CO1 [Example 20, 4-(4,4-difluoropiperidin-1-yl)-8,14-dioxa-10,19,20-triazatetracyclo[13.5.2.1^2,6.0^18,21]tricosa-1(20),2,4,6(23),15,17,21-heptaen-9-one]"
5,< 10 nM,"O=C1NC[C@@H](F)COc2ccc3[nH]nc(c3c2)-c2cncc(n2)CO1 [Example 172, (12R)-12-fluoro-8,14-dioxa-4,10,19,20,23-pentaazatetracyclo[13.5.2.1^2,6.0^18,21]tricosa-1(20),2(23),3,5,15,17,21-heptaen-9-one]"
6,< 10 nM,"O=C1NCCCOc2ccc3[nH]nc(c3c2)-c2cc(cc(N3CCC(F)(F)C3)c2)CO1 [Example 21, 4-(3,3-difluoropyrrolidin-1-yl)-8,14-dioxa-10,19,20-triazatetracyclo[13.5.2.1^2,6.0^18,21]tricosa-1(20),2,4,6(23),15,17,21-heptaen-9-one]"
7,< 10 nM,"O=C1NCCCOc2ccc3[nH]nc(c3c2)-c2cc(cc(N3CCC(N4CCOCC4)CC3)c2)CO1 [Example 38, 4-[4-(morpholin-4-yl)piperidin-1-yl]-8,14-dioxa-10,19,20-triazatetracyclo[13.5.2.1^2,6.0^18,21]tricosa-1(20),2,4,6(23),15,17,21-heptaen-9-one]"
8,10 to 100 nM,"O=C1NCCCOc2ccc3[nH]nc(c3c2)-c2ccn(n2)CCO1 [Example 84, 8,14-dioxa-5,10,19,20,23-pentaazatetracyclo[13.5.2.1^2,5.0^18,21]tricosa-1(20),2(23),3,15(22),16,18(21)-hexaen-9-one]"
9,< 10 nM,"O=C1NCC(F)(F)COc2ccc3[nH]nc(c3c2)-c2cccc(c2)CO1 [Example 152, 12,12-difluoro-8,14-dioxa-10,19,20-triazatetracyclo[13.5.2.1^2,6.0^18,21]tricosa-1(20),2(23),3,5,15(22),16,18(21)-heptaen-9-one]"
10,< 10 nM,"O=C1OCc2cncc(c2)-c2n[nH]c3ccc(cc23)OCC2CCN1C2 (stereo not shown) [Example 98, 8,15-dioxa-4,10,20,21-tetraazapentacyclo[14.5.2.1^2,6.1^10,13.0^19,22]pentacosa-1(21),2(25),3,5,16(23),17,19(22)-heptaen-9-one]"
11,10 to 100 nM,"Cc1c(F)cc2cc1C(C)OC(=O)NCCCOc1ccc3[nH]nc-2c3c1 (stereo not shown) [Example 88, 4-fluoro-5,7-dimethyl-8,14-dioxa-10,19,20-triazatetracyclo[13.5.2.1^2,6.0^18,21]tricosa-1(20),2(23),3,5,15(22),16,18(21)-heptaen-9-one]"
12,< 10 nM,"O=C1NCCC2(CC2)Oc2ccc3[nH]nc(c3c2)-c2cccc(c2)CO1 [Example 175, 8′,14′-dioxa-10′,19′,20′-triazaspiro[cyclopropane-1,13′-tetracyclo[13.5.2.1^2,6.0^18,21]tricosane]-1′(20′),2′(23′),3′,5′,15′(22′),16′,18′(21′)-heptaen-9′-one]"
13,10 to 100 nM,"C[C@@H]1CCNC(=O)O[C@@H](C)c2cccc(n2)-c2n[nH]c3ccc(cc23)O1 [Example 150, (7S,13R)-7,13-dimethyl-8,14-dioxa-10,19,20,23-tetraazatetracyclo[13.5.2. 1^2,6.0^18,21]tricosa-1(20),2(23),3,5,15(22),16,18(21)-heptaen-9-one]"
14,< 10 nM,"CC1CNC(=O)OCc2cccc(c2)-c2n[nH]c3ccc(cc23)OC1 (stereo not shown) [Example 86, 12-methyl-8,14-dioxa-10,19,20-triazatetracyclo[13.5.2.1^2,6.0^18,21]tricosa-1(20),2(23),3,5,15(22),16,18(21)-heptaen-9-one]"
15,< 10 nM,"O=C1NCCCOc2ccc3[nH]nc(c3c2)-c2ccc(F)c(c2)CO1 [Example 10, 5-fluoro-8,14-dioxa-10,19,20-triazatetracyclo[13.5.2.1^2,6.0^18,21]tricosa-1(20), 2,4,6(23),15,17,21-heptaen-9-one]"
16,100 to 1000 nM,"O=C1NCCOc2ccc3[nH]nc(c3c2)-c2cnn(c2)CCCO1 [Example 121, 9,14-dioxa-4,5,11,19,20-pentaazatetracyclo[13.5.2.1^2,5.0^18,21]tricosa-1(20),2(23),3,15,17,21-hexaen-10-one]"

row,IC50,SMILES
1,< 10 nM,"N#CC1CCN(c2cc3cc(c2)-c2n[nH]c4ccc(cc24)OCCCNC(=O)OC3)CC1 [Example 33, 1-{9-oxo-8,14-dioxa-10,19,20-triazatetracyclo[13.5.2.1^2,6.0^18,21]tricosa-1(20),2,4,6(23),15,17,21-heptaen-4-yl}piperidine-4-carbonitrile]"
2,< 10 nM,"Cc1cc2cc(c1)-c1n[nH]c3ccc(cc13)OCCCNC(=O)OC2 [Example 18, 4-methyl-8,14-dioxa-10,19,20-triazatetracyclo[13.5.2.1^2,6.0^18,21]tricosa-1(20),2,4,6(23),15,17,21-heptaen-9-one]"
3,< 10 nM,"C[C@@H]1CCNC(=O)OCc2cncc(c2)-c2n[nH]c3ccc(cc23)O1 [Example 102, (13R)-13-methyl-8,14-dioxa-4,10,19,20-tetraazatetracyclo[13.5.2.1^2,6.0^18,21]tricosa-1(20),2(23),3,5,15(22),16,18(21)-heptaen-9-one]"
4,< 10 nM,"O=C1NCCCOc2ccc3[nH]nc(c3c2)-c2cc(cc(N3CCCC3=O)c2)CO1 [Example 74, 4-(2-oxopyrrolidin-1-yl)-8,14-dioxa-10,19,20-triazatetracyclo[13.5.2. 1^2,6.0^18,21]tricosa-1(20),2(23),3,5,15(22),16,18(21)-heptaen-9-one]"
5,10 to 100 nM,"CN1CCN(c2ccc3cc2COC(=O)NCCCOc2ccc4[nH]nc-3c4c2)CC1 [Example 49, 5-(4-methylpiperazin-1-yl)-8,14-dioxa-10,19,20-triazatetracyclo[13.5.2.1^2,6.0^18,21]tricosa-1(20),2,4,6(23),15,17,21-heptaen-9-one]"
6,< 10 nM,"O=C1NCCCOc2ccc3[nH]nc(c3c2)-c2cccc(c2)CO1 [Example 5, 8,14-dioxa-10,19,20-triazatetracyclo[13.5.2.1^2,6.0^18,21]tricosa-1(20),2,4,6(23), 15,17,21-heptaen-9-one]"
7,< 10 nM,"O=C1NCCCOc2ccc3[nH]nc(c3c2)-c2nc(cs2)CCO1 [Example 135, 8,14-dioxa-3-thia-10,19,20,23-tetraazatetracyclo[13.5.2.1^2,5.0^18,21]tricosa-1(20),2(23),4,15,17,21-hexaen-9-one]"
8,< 10 nM,"O=C1NCCCOc2ccc3[nH]nc(c3c2)-c2cnn(c2)CCO1 [Example 51, 8,14-dioxa-4,5,10,19,20-pentaazatetracyclo[13.5.2.1^2,5.0^18,21]tricosa-1(20),2(23),3,15(22),16,18(21)-hexaen-9-one]"
9,< 10 nM,"CC1CCCN1c1cc2cc(c1)-c1n[nH]c3ccc(cc13)OCCCNC(=O)OC2 (stereo not shown) [Example 76, 4-(2-methylpyrrolidin-1-yl)-8,14-dioxa-10,19,20-triazatetracyclo[13.5.2.1^2,6.0^18,21]tricosa-1(20),2(23),3,5,15(22),16,18(21)-heptaen-9-one]"
10,< 10 nM,"O=C1NCCCOc2ccc3[nH]nc(c3c2)-c2ccc(N3CCCC3=O)c(c2)CO1 [Example 75, 5-(2-oxopyrrolidin-1-yl)-8,14-dioxa-10,19,20-triazatetracyclo[13.5.2. 1^2,6.0^18,21]tricosa-1(20),2(23),3,5,15(22),16,18(21)-heptaen-9-one]"
11,100 to 1000 nM,"COc1c(F)cc2cc1C(C)OC(=O)NCCCOc1ccc3[nH]nc-2c3c1 (stereo not shown) [Example 89, 4-fluoro-5-methoxy-7-methyl-8,14-dioxa-10,19,20-triazatetracyclo[13.5.2.1^2,6.0^18,21]tricosa-1(20),2(23),3,5,15(22),16,18(21)-heptaen-9-one]"
12,< 10 nM,"O=C1NCC(F)(F)COc2ccc3[nH]nc(c3c2)-c2cncc(n2)CO1 [Example 170, 12,12-difluoro-8,14-dioxa-4,10,19,20,23-pentaazatetracyclo[13.5.2.1^2,6.0^18,21]tricosa-1(20),2(23),3,5,15(22),16,18(21)-heptaen-9-one]"
13,< 10 nM,"O=C1NCCCOc2ccc3[nH]nc(c3c2)-c2ccc(N3CCOCC3)c(c2)CO1 [Example 45, 5-(morpholin-4-yl)-8,14-dioxa-10,19,20-triazatetracyclo[13.5.2.1^2,6.0^18,21]tricosa-1(20),2,4,6(23),15,17,21-heptaen-9-one]"
14,< 10 nM,"C[C@@H]1CCNC(=O)OCc2cccc(c2)-c2n[nH]c3ncc(cc23)O1 [Example 165, (13R)-13-methyl-8,14-dioxa-10,17,19,20-tetraazatetracyclo[13.5.2.1^2,6.0^18,21]tricosa-1(20),2(23),3,5,15(22),16,18(21)-heptaen-9-one]"
15,< 10 nM,"Cc1cc2[nH]nc3c2cc1O[C@H](C)CCNC(=O)OCc1cccc-3c1 [Example 139, (13R)-13,16-dimethyl-8,14-dioxa-10,19,20-triazatetracyclo[13.5.2.1^2,6.0^18,21]tricosa-1(20),2,4,6(23),15,17,21-heptaen-9-one]"
